According to patent publication US6372884B1, “Biologically active compounds and methods of constructing and using the same” (priority 1987, dated 2002):
Ends that are not written are not given here.

What was measured:
[1] = tested on: C3H female mouse spleenocytes; test: Lymphocyte proliferation with or without concanavalin A; type: cell-based; settings: for inhibition of con A induced lymphocyte proliferation: presence of con A, FIGS. 7B, 8A, 8B; for biologic activity compared with VL peptide: summary statement in the discussion
[2] = tested on: reovirus type 3 receptor on R1.1 cells; test: Down-modulation of reovirus type 3 receptor, flow cytometry with 87.92.6; type: cell-based, murine; settings: for level of expression of the reovirus type 3 receptor: 1 hour at 37° C., up to 500 μg/ml peptide, FIGS. 5A-D
[3] = tested on: Thy 1.2 molecules on R1.1 cells; test: Expression of Thy 1.2 molecules, flow cytometry with HO 13.4; type: cell-based, murine; settings: for expression of Thy 1.2 molecules: 1 hour at 37° C., up to 500 μg/ml peptide, FIGS. 5A-D
[4] = tested on: L cells; test: Inhibition of L cell DNA synthesis (tritiated thymidine); type: cell-based, murine; settings: tritiated thymidine incorporation after 24 hours, FIGS. 3 and 4
Protocol: Reovirus type 3 inhibits host cell DNA synthesis upon receptor perturbation. This effect is not due to infection of cells as replication defective reovirus type 3 particles retain this property. L cells were cultured at 5 ×10^4 cells per well of 96 well microtiter plates in 100 μl media for 24 hours. Reovirus type 3 particles (A) were added and incubated for an additional 24 hours prior to the addition of tritiated thymidine. Purified monoclonal antibodies 87.92.6 or HO 22.1 (B) were added for 1 hour at 37° C., then the culture media removed and replaced with 100 μl fresh media for 24 hours, prior to the addition of tritiated thymidine. The cells were incubated for an additional 4-6 hours and counts per minute (CPM) incorporated were determined.
87.92.6 is effective only as a native antibody while monomeric Fab fragments have no effect. VL peptide was synthesized with an additional amino terminal cysteine residue (VLSH) to form a dimeric peptide. VLSH peptide was dimerized by stirring a 5 mg/ml solution in 0.1 M ammonium bicarbonate overnight at 23° C. exposed to air. The peptides were then lyophilized. Dimerization was confirmed by Ellman determination according to the procedure of Ellman, G. L. Arch. […] Tritiated thymidine was added for an additional 4-6 hours, and counts per minute (CPM) incorporated was determined. Per cent inhibition was determined by the formula: [formula]

[5] = Size-exclusion chromatography of oxidized peptides (Sephadex G-10); type: physicochemical; settings: reduced versus non-reduced peptides
[6] = Rate of loss of sulfhydryls on air oxidation (Ellman determination); type: physicochemical; settings: 2 mg/ml in 0.1 M NaHCO3, 37° C., exposed to air, FIG. 23
[7] = tested on: monoclonal antibody 9BG5; test: Inhibition of binding of radioiodinated reovirus type 3 particles to 9BG5 coated wells; parameters: species or system mouse; settings: relative to VL peptide
Protocol: The wells of microtiter plates were coated with neutralizing anti-reovirus type 3 monoclonal antibody 9BG5 or irrelevant class matched monoclonal A11 by adsorption to staphylococcal protein A (SPA). SPA (sigma Chemical Co., St. Louis, Mo.) was diluted to 5 μg/ml in 0.1 M NaHCO3 pH 9.6 and 50 μl/well dispensed into 96 well polystyrene plates. Following overnight incubation at 4° C., the. wells were decanted, washed three times in PBS, and blocked with 2% BSA in PBS with 0.1% NaN3 for one hour at 37° C. The wells were decanted, washed three times in PBS and monoclonal antibody 9BG5 diluted to 10 μg/ml in 1% BSA in PBS with 0.1% NaN3 was added (50 μl/well) for 1-3 hours at 37° C. […] The wells were decanted and washed three times in PBS. Competitors were added at the concentrations noted (100 μl/well) diluted in 0.5% BSA in 5 mM phosphate buffer with 0.45% NaCl and preincubated for 45-60 minutes at 23° C. […] Following preincubation with inhibitors, radioiodinated reovirus type 3 particles diluted in 1% BSA in PBS with 0.1% NaN3 were added (5-10×10^5 CPM per well), and the incubation continued for 45 minutes. Wells were decanted, washed 8-10 times with PBS and the CPM bound determined. […] As shown in FIGS. 10A-C, 6,700 CPM were bound to 9BG5 coated wells and 500 CPM were bound to control (A11 ) coated wells in the absence of inhibitors. The mean ± standard deviation of binding inhibition (Determined as noted for FIG. 9) of replicate wells is shown. Control peptide B was used in this study. The competitor peptides in FIGS. 15A and 15B are those described herein. Competitor peptide VLA6 is identical to VL except that alanine is substituted for asparagine at position 6.

[8] = tested on: reovirus type 3 receptor on L cells; test: Inhibition of binding of radioiodinated reovirus particles to L cells; parameters: species or system murine; settings: summary statement in the discussion
[9] = tested on: reovirus type 3; parameters: species or system Balb/c mice; settings: mouse, in vivo
[10] = tested on: neutralizing monoclonal antibody 9BG5; type: binding, mouse
[11] = tested on: reovirus type 1; parameters: species or system Balb/c mice; settings: mouse, in vivo
[12] = tested on: reovirus type 1; parameters: species or system Balb/c mice; settings: mouse, in vivo; remark: listed apart in the source
[13] = tested on: reovirus type 3; parameters: species or system Balb/c mice; settings: mouse, in vivo; remark: listed apart in the source
[14] = tested on: 9B.G5; test: Competitive RIA: inhibition of 9B.G5 - 87.92.6 interaction; type: binding; settings: liquid phase assay, FIGS. 25 and 26
[15] = tested on: reovirus type 3 receptor (Reo3R); test: Flow cytometry: inhibition of 87.92.6 binding to cells; parameters: species or system murine
Protocol: The ability of peptides to inhibit antibody binding to cells was determined by preincubation of the cells with varying amounts of inhibitor (in 100 μl dH2O) for between 30 minutes and 1 hour at 23° C. Cells (either L cells or R1.1 cells) were washed in 1% BSA/PBS/0.1% NaN3, and resuspended at 10^7/ml. 100 μl of cells were then added in 1% BSA/PBS/0.1% NaN3, and the incubation continued for 20-30 minutes. Antibodies (5 or 10 μl were added for an additional 20 minutes at 23° C. Ice cold 1% BSA/PBS/0.1% NaN3, was added, the cells centrifuged and washed prior to counterstaining with a 1:100 dilution of FITC goat anti-mouse Ig (Fisher Scientific) in 1% BSA/PBS/0.1% NaN3. The cells were washed twice and fluorescence intensity determined. Inhibition of binding was calculated as noted above with mean channel number utilized in place of CPM.
To assess the affinity of the cyclic peptides for the reovirus type 3 receptor (Reo3R), they were utilized in a series of assays to inhibit binding of 87.92.6 or control antibodies to specific receptors. […] The inhibition by VLC9C16 peptide was specific as binding of isotype matched monoclonal H013.4 to Thy2 molecules was not inhibited by VLC9C16 peptide (FIG. 30). Thus, VLC9C16 peptide is a specific Reo3R ligand with enhanced affinity compared with its linear analog.

Cys-Lys-Pro-Gly-Lys-Thr-Asn-Lys-Leu-Leu-Ile-Tyr-Ser-Gly-Ser-Thr-Leu-Gln (CKPGKTNKLLIYSGSTLQ; also: dimeric) [VLSH peptide]
inhibition of spontaneous lymphocyte proliferation ([1]; absence of con A, FIG. 7A): markedly inhibited | level of expression of the reovirus type 3 receptor [2]: specifically down-modulates | reovirus type 3 receptor expression (decrease in mean channel fluorescence) ([2]; peptides 100 μg/ml, three experiments, FIG. 6): specifically down-modulated | expression of Thy 1.2 molecules [3]: does not effect | expression of Thy 1.2 molecules (decrease in mean channel fluorescence) ([3]; peptides 100 μg/ml, FIG. 6): without effecting | inhibition of DNA synthesis by L cells [4]: marked inhibition

KPGKTNKCLIYSGSTCQ (cysteine pairing not given here) [VLC8C16 peptide]
molecular form following oxidation by size-exclusion chromatography [5]: remained chiefly as monomers | rate of loss of sulfhydryls [6]: most rapid loss of sulfhydryls

KPGKTNKLLCYSGSTCQ (cysteine pairing not given here) [VLC10C16 peptide]
molecular form following oxidation by size-exclusion chromatography [5]: migrated more rapidly | rate of loss of sulfhydryls [6]: more slowly

KPGKTNKLLIYAGSTLQ [VLA12]
inhibition of con A induced lymphocyte proliferation [1]: attenuated | biologic activity compared with VL peptide [1]: reduced biologic activity | binding to neutralizing monoclonal antibody 9BG5, variant peptide compared with VL peptide [7]: reduced binding to neutralizing monoclonal antibody | binding to the reovirus type 3 receptor compared with VL peptide [8]: reduced binding to the reovirus type 3 receptor

KPGKTNKLLIYSASTLQ [VLA13]
inhibition of con A induced lymphocyte proliferation [1]: increased effect | binding to neutralizing monoclonal antibody 9BG5, variant peptide compared with VL peptide [7]: increased binding

KPGKTNKLLIYSGSALQ [VLA15]
inhibition of con A induced lymphocyte proliferation [1]: attenuated | biologic activity compared with VL peptide [1]: decreased biological activity | binding to neutralizing monoclonal antibody 9BG5, variant peptide compared with VL peptide [7]: increased binding to neutralizing monoclonal antibody | binding to the reovirus type 3 receptor compared with VL peptide [8]: decreased binding to the reovirus type 3 receptor

KSGNASTPQQLQNLTLDIRQR [control peptide, control peptide, unrelated to this system, reference compound]
neutralization of L-cell lysis by reovirus type 3 by immune serum [9]: no effect | specific binding of 9BG5 to peptide coated wells [10]: No significant binding | neutralization of L-cell lysis by reovirus type 1 by immune serum [11]: no effect | binding of immune serum to type 1 virus coated plates [12]: bound poorly | binding of immune serum to type 3 virus coated plates [13]: bound poorly

QGLEWIGRIDPANG [VH peptide, amino acids 43-56 of the heavy chain variable region of 87.92.6 including CDR II]
level of expression of the reovirus type 3 receptor [2]: does not effect | specific binding of 9BG5 to peptide coated wells [10]: only achieved background levels | expression of Thy 1.2 molecules [3]: does not effect | inhibition of 9B.G5 - 87.92.6 interaction [14]: able to inhibit | interaction with the reovirus type 3 receptor (Reo3R) [15]: does not significantly interact | inhibition of binding of 87.92.6 to murine L cells ([15]; L cells, FIG. 29): no effect | inhibition of binding of 87.92.6 to R1.1 thymoma cells ([15]; R1.1 cells, FIG. 29): no effect
